ChEMBL document CHEMBL1201862, “PubChem BioAssay data set” (2004)
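All cell lines were grown in 96-well plates and treated with compound for 48 hours. GI50 marks 50% less growth.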 Calls of active or inactive are those of the source. Rule as the data show it: active = GI50 up to about 1.1 µM and inactive = higher.

How the values were obtained:
Assay in all cases: growth of human tumour cells (NCI), 48 h
[1] = tested on: SK-MEL-28
[2] = tested on: HOP-18
[3] = tested on: HOP-92
[4] = tested on: DLD-1
[5] = tested on: DMS-114
[6] = tested on: 786-0
[7] = tested on: NCI-H460
[8] = tested on: ACHN
[9] = tested on: IGROV-1
[10] = tested on: SF-268
[11] = tested on: HT-29
[12] = tested on: NCI-H522
[13] = tested on: HL-60
[14] = tested on: TK-10
[15] = tested on: COLO 205
[16] = tested on: KM-20L2
[17] = tested on: XF498
[18] = tested on: RPMI-8226
[19] = tested on: SR
[20] = tested on: KM12
[21] = tested on: NCI-H226
[22] = tested on: U-251
[23] = tested on: SN12C
[24] = tested on: OVCAR-5
[25] = tested on: OVCAR-4
[26] = tested on: OVCAR-8
[27] = tested on: CAKI-1
[28] = tested on: LOX IMVI
[29] = tested on: UO-31
[30] = tested on: HCT-15
[31] = tested on: SW-620
[32] = tested on: DMS-273
[33] = tested on: A549
[34] = tested on: SK-MEL-2
[35] = tested on: Malme-3M
[36] = tested on: SNB-78
[37] = tested on: SK-MEL-5
[38] = tested on: LXFL 529
[39] = tested on: SF-295
[40] = tested on: SNB-19
[41] = tested on: SF-539
[42] = tested on: UACC-62
[43] = tested on: K562
[44] = tested on: CCRF-CEM
[45] = tested on: SNB-75
[46] = tested on: OVCAR-3
[47] = tested on: NCI-H23
[48] = tested on: MOLT-4
[49] = tested on: A498
[50] = tested on: M14
[51] = tested on: EKVX
[52] = tested on: SK-OV-3
[53] = tested on: UACC-257
[54] = tested on: HOP-62
[55] = tested on: M19-MEL
[56] = tested on: HCC 2998
[57] = tested on: RXF 631
[58] = tested on: HCT-116
[59] = tested on: RXF 393

For `O=[N+]([O-])c1ccc(-c2ccc(/C=N/n3c(S)nnc3-c3ccc(Cl)cc3)o2)cc1`, the GI50 [1] was 16.6 µM (inactive), the GI50 [2] was > 100 µM (inactive) and the GI50 [3] was > 42 µM (inactive). For the same molecule, the GI50 [4] was 41.6 µM (inactive), the GI50 [5] was 95.3 µM (inactive) and the GI50 [6] was 19.2 µM (inactive). The GI50 [7] was 21.5 µM (inactive), the GI50 [8] was 26 µM (inactive) and the GI50 [9] was > 81.3 µM (inactive). For the same molecule, the GI50 [10] was 24.7 µM (inactive), the GI50 [11] was 22 µM (inactive) and the GI50 [12] was 28.6 µM (inactive). The GI50 [13] was 51.2 µM (inactive), the GI50 [14] was 31 µM (inactive) and the GI50 [15] was 32.1 µM (inactive). For the same molecule, the GI50 [16] was 28 µM (inactive), the GI50 [17] was 19.5 µM (inactive) and the GI50 [18] was 16.6 µM (inactive). The GI50 [19] was 22.3 µM (inactive), the GI50 [20] was 22.8 µM (inactive) and the GI50 [21] was > 38.6 µM (inactive). The GI50 [22] was 21.6 µM (inactive), the GI50 [23] was > 49.2 µM (inactive) and the GI50 [24] was > 100 µM (inactive). For the same molecule, the GI50 [25] was > 38.1 µM (inactive), the GI50 [26] was > 50 µM (inactive) and the GI50 [27] was > 39 µM (inactive). For the same molecule, the GI50 [28] was 47.5 µM (inactive), the GI50 [29] was > 24.2 µM (inactive) and the GI50 [30] was 22.6 µM. The GI50 [31] was 29 µM (inactive), the GI50 [32] was 22.9 µM (inactive) and the GI50 [33] was 28 µM (inactive). For the same molecule, the GI50 [34] was 34.2 µM (inactive), the GI50 [35] was 17.4 µM (inactive) and the GI50 [36] was > 50.6 µM (inactive). The GI50 [37] was 20.5 µM (inactive), the GI50 [38] was 22.5 µM (inactive) and the GI50 [39] was 24.1 µM (inactive). The GI50 [40] was 23 µM (inactive), the GI50 [41] was > 40.2 µM (inactive) and the GI50 [42] was 27.4 µM (inactive). For the same molecule, the GI50 [43] was 19.2 µM (inactive), the GI50 [44] was 37.2 µM (inactive) and the GI50 [45] was 33.3 µM (inactive). For the same molecule, the GI50 [46] was 27.9 µM (inactive), the GI50 [47] was 27.2 µM (inactive) and the GI50 [48] was 15 µM (inactive). For the same molecule, the GI50 [49] was > 100 µM (inactive), the GI50 [50] was 16.1 µM (inactive) and the GI50 [51] was > 100 µM (inactive). For the same molecule, the GI50 [52] was > 40.7 µM (inactive), the GI50 [53] was > 57.5 µM (inactive) and the GI50 [54] was 17.5 µM (inactive). The GI50 [55] was 21.1 µM (inactive), the GI50 [56] was > 72.4 µM (inactive) and the GI50 [57] was > 37.4 µM (inactive). The GI50 [58] was 17.7 µM (inactive).
With `CC(=O)OCc1c(O)nc2c(c1O)-c1ccccc1CC2` the GI50 [1] was 59.6 µM (inactive), the GI50 [2] was 129 µM (inactive) and the GI50 [3] was 78.5 µM (inactive). For the same molecule, the GI50 [4] was 71.9 µM (inactive), the GI50 [5] was 67.8 µM (inactive) and the GI50 [6] was 56.9 µM (inactive). For the same molecule, the GI50 [7] was 77.8 µM (inactive), the GI50 [8] was 163 µM (inactive) and the GI50 [9] was 164 µM (inactive). For the same molecule, the GI50 [10] was 77.1 µM (inactive), the GI50 [11] was 113 µM (inactive) and the GI50 [12] was 35.6 µM (inactive). The GI50 [13] was 84.7 µM (inactive), the GI50 [14] was 86.9 µM (inactive) and the GI50 [15] was 57 µM (inactive). For the same molecule, the GI50 [16] was 106 µM (inactive), the GI50 [17] was 56.5 µM (inactive) and the GI50 [18] was 38.5 µM (inactive). The GI50 [19] was 95.1 µM (inactive), the GI50 [20] was 53.2 µM (inactive) and the GI50 [21] was > 350 µM (inactive). For the same molecule, the GI50 [22] was > 350 µM (inactive), the GI50 [23] was 62.2 µM (inactive) and the GI50 [26] was 101 µM (inactive). The GI50 [27] was 59.2 µM (inactive), the GI50 [28] was 61.4 µM (inactive) and the GI50 [30] was 57.5 µM. The GI50 [31] was 56.4 µM (inactive), the GI50 [32] was 49.2 µM (inactive) and the GI50 [33] was 134 µM (inactive). The GI50 [34] was > 35 µM (inactive), the GI50 [59] was 54.6 µM (inactive) and the GI50 [35] was > 35 µM (inactive). For the same molecule, the GI50 [37] was 76.6 µM (inactive), the GI50 [38] was 60 µM (inactive) and the GI50 [39] was 74.6 µM (inactive). For the same molecule, the GI50 [40] was > 350 µM (inactive), the GI50 [41] was 89.1 µM (inactive) and the GI50 [42] was 50.5 µM (inactive). The GI50 [43] was 109 µM (inactive), the GI50 [44] was 67.1 µM (inactive) and the GI50 [46] was 51.5 µM (inactive). For the same molecule, the GI50 [47] was 76.6 µM (inactive), the GI50 [48] was 97.5 µM (inactive) and the GI50 [51] was 125 µM (inactive). The GI50 [52] was 194 µM (inactive), the GI50 [53] was 81.3 µM (inactive) and the GI50 [54] was 131 µM (inactive). For the same molecule, the GI50 [55] was 54.3 µM (inactive), the GI50 [56] was 80.9 µM (inactive) and the GI50 [57] was 69.5 µM (inactive). The GI50 [58] was 58.2 µM (inactive).
